Experimental data: patent publication US12564584B2, “Amorphous cabozantinib particles and uses thereof” (Flex Pharma, LLC, priority 2020, dated 2026)

How the values were obtained:
[1] = cited from earlier work
[2] = Total related substances by HPLC; format: physicochemical
Procedure: (§1) Total related substances was determined by HPLC using a Waters Acquity H-Class UPLC instrument utilizing a Waters Acquity BEH C18, 2.1×50 mm, 1.7 μm column. Sample solutions of each ASD were prepared by accurately weighing ASD powder into a volumetric flask, and diluted in 1:1:1 methanol:ethanol:water. The final concentration of the analyte (cabozantinib) in the sample was approximately 0.2 mg/ml.
Individual related substances were calculated as peak area percent. Total related substances is calculated as the sum of all detected individual related substances.
(§2) Assay values and total related substances were determined for the ASDs after preparation (t=0) and at the designated stability timepoints using an appropriate HPLC method (as described in Example 1). The reported assay values have been corrected for water content (determined by Karl Fischer coulometric titration method).

[3] = Assay by HPLC (corrected for water content); format: physicochemical
Procedure: as §1, §2

[4] = Water content by Karl Fischer coulometric titration; format: physicochemical; conditions: after preparation
Procedure: Water content was determined by Karl Fischer coulometric titration method, using a Mettler Toledo C30S Karl Fischer with Stromboli Oven Sampler. Approximately 40-50 mg of ASD powder was weighed into a glass Stromboli sample vial and the vial was immediately sealed with a foil coated vial cover, and a rubber vial cap cover was placed on top of the sample vial. The vial was then placed onto instrument and analysis was conducted using nitrogen carrier gas. Instrument details and measurement conditions are specified in Table 4.

[5] = cited from earlier work; remark: listed apart in the source
[6] = system: MET, VEGFR-1, -2 and -3, AXL, RET, ROS1, TYRO3, MER, KIT, TRKB, FLT-3, and TIE-2; conditions: FLT-3, TIE-2; cited from earlier work

Row | SMILES | solubility in aqueous media [1] | Total Related Substances ([2]; 40° C./protected, 1 month) [%] | Total Related Substances ([2]; 40° C./protected, 2 months) [%] | Total Related Substances ([2]; 40° C./protected, 3 months) [%] | Total Related Substances (% Area) ([2]; after preparation) | Total Related Substances ([2]; t = 0) [%] | Assay ([3]; 40° C./protected, 1 month) [%] | Assay ([3]; 40° C./protected, 2 months) [%] | Assay ([3]; 40° C./protected, 3 months) [%] | Assay ([3]; t = 0) [%] | Water Content (% water) [4] [% water] | protein bound in human plasma [5] [%] | inhibition of tyrosine kinase activity [6]
1 | COc1cc2nccc(Oc3ccc(NC(=O)C4(C(=O)Nc5ccc(F)cc5)CC4)cc3)c2cc1OC.O=C(O)C[C@H](O)C(=O)O [Cabozantinib (S)-malate salt] | practically insoluble |  |  |  |  |  |  |  |  |  |  |  | 
2 | COc1cc2nccc(Oc3ccc(NC(=O)C4(C(=O)Nc5ccc(F)cc5)CC4)cc3)c2cc1OC.O=C(O)C[C@H](O)C(=O)O [Cabozantinib (free base), N-(4-(6,7-dimethoxyquinolin-4-yloxy)phenyl)-N′-(4-fluorophenyl)cyclopropane-1,1-dicarboxamide, (2S)-hydroxybutanedioate] |  | 0.52 | 0.44 | 0.38 | 0.44 | 0.44 | 99.9 | 99.6 | 99.0 | 99.2 | 0.75 | ≥ 99.7 | inhibits
